pIC50: −log10 of the molar value. Values joined by “and” are separate entries in the source; they are usually repeats but may differ in a detail not shown here. Identical values can stand only once.
Test system: 327498-153-R-J2-PDC complex spheroid growth, % test/control
Assay: Anticancer human tumor 327498-153-R-J2-PDC patient-derived uterine carcinosarcoma cell line growth inhibition [Asc]
Settings: for viability, T/C: stronger effect = lower value
Outline: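 Concentration series start at each agent's clinical Cmax, or at 10 microM when none is established, and drop in half-log steps; agents are applied alone or together to complex spheroids built with HUVEC and hMSC.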

[1] = curve of first compound, second compound 0.1 µM
[2] = curve of first compound, second compound 0.316 µM
[3] = curve of first compound, second compound 1 µM
[4] = second compound 0.1 µM, first compound 0.0316 µM
[5] = second compound 0.1 µM, first compound 0.1 µM
[6] = second compound 0.316 µM, first compound 0.0316 µM
[7] = second compound 0.316 µM, first compound 0.1 µM
[8] = second compound 1 µM, first compound 0.0316 µM
[9] = second compound 1 µM, first compound 0.1 µM
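Also: spheroids exposed to compound for 7 days after 3 days of growth.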
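For viability, T/C in this document: 100% = DMSO vehicle control wells.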

For `NC1CCC(NC2CC2c2ccccc2)CC1` (configuration not stated) + CNC(C)C(=O)NC1CN(S(=O)(=O)c2cccc(S(=O)(=O)N3CCC4CCC(C(=O)NC(c5ccccc5)c5ccccc5)N4C(=O)C(NC(=O)C(C)NC)C3)c2)CCC2CCC(C(=O)NC(c3ccccc3)c3ccccc3)N2C1=O, the pIC50 (curve of first compound, second compound 0.01 µM) was less than 7.00, the pIC50 (curve of first compound, second compound 0.0316 µM) was less than 7.00 and the pIC50 [1] was less than 7.00. It also gave a pIC50 [2] of less than 7.00, a pIC50 [3] of less than 7.00 and a viability, T/C (second compound 0.01 µM, first compound 0.000316 µM) of 103%. It also gave a viability, T/C (second compound 0.01 µM, first compound 0.001 µM) of 106%, a viability, T/C (second compound 0.01 µM, first compound 0.00316 µM) of 92.3% and a viability, T/C (second compound 0.01 µM, first compound 0.01 µM) of 97.6%. The viability, T/C (second compound 0.01 µM, first compound 0.0316 µM) was 99.4%, the viability, T/C (second compound 0.01 µM, first compound 0.1 µM) was 96% and the viability, T/C (second compound 0.0316 µM, first compound 0.000316 µM) was 104%. For the same compound, the viability, T/C (second compound 0.0316 µM, first compound 0.001 µM) was 104%, the viability, T/C (second compound 0.0316 µM, first compound 0.00316 µM) was 101% and the viability, T/C (second compound 0.0316 µM, first compound 0.01 µM) was 100%. The viability, T/C (second compound 0.0316 µM, first compound 0.0316 µM) was 99.9%, the viability, T/C (second compound 0.0316 µM, first compound 0.1 µM) was 101% and the viability, T/C (second compound 0.1 µM, first compound 0.000316 µM) was 100%. For the same compound, the viability, T/C (second compound 0.1 µM, first compound 0.001 µM) was 101%, the viability, T/C (second compound 0.1 µM, first compound 0.00316 µM) was 100% and the viability, T/C (second compound 0.1 µM, first compound 0.01 µM) was 104%. The viability, T/C [4] was 108%, the viability, T/C [5] was 98.9% and the viability, T/C (second compound 0.316 µM, first compound 0.000316 µM) was 101%. It also gave a viability, T/C (second compound 0.316 µM, first compound 0.001 µM) of 107%, a viability, T/C (second compound 0.316 µM, first compound 0.00316 µM) of 106% and a viability, T/C (second compound 0.316 µM, first compound 0.01 µM) of 98.5%. The viability, T/C [6] was 96.8%, the viability, T/C [7] was 100% and the viability, T/C (second compound 1 µM, first compound 0.000316 µM) was 106%. The viability, T/C (second compound 1 µM, first compound 0.001 µM) was 113%, the viability, T/C (second compound 1 µM, first compound 0.00316 µM) was 108% and the viability, T/C (second compound 1 µM, first compound 0.01 µM) was 105%. For the same compound, the viability, T/C [8] was 94.7% and the viability, T/C [9] was 97.8%.
In the case of `C=CC(=O)N1CCN(c2nc(=O)n(-c3c(C)ccnc3C(C)C)c3nc(-c4c(O)cccc4F)c(F)cc23)C(C)C1` (configuration not stated) + Cc1c(S(C)(=O)=O)c(-c2cc(F)cc(N3CCN(c4ccc(NS(=O)(=O)c5ccc(NC(CCN6CCC(C(=O)OCCCP(=O)(O)O)CC6)CSc6ccccc6)c(S(=O)(=O)C(F)(F)F)c5)cc4)CC3)c2)c(-c2ccc(Cl)cc2)n1C(C)C, the pIC50 [1] was less than 5.00, the pIC50 [2] was less than 5.00 and the pIC50 [3] was less than 5.00. For the same compound, the pIC50 (curve of first compound, second compound 3.16 µM) was less than 5.00, the pIC50 (curve of first compound, second compound 10 µM) was less than 5.00 and the viability, T/C [4] was 78.9%. It also gave a viability, T/C [5] of 68.5%, a viability, T/C (second compound 0.1 µM, first compound 0.316 µM) of 66.7% and a viability, T/C (second compound 0.1 µM, first compound 1 µM) of 69.5%. It also gave a viability, T/C (second compound 0.1 µM, first compound 3.16 µM) of 63.4%, a viability, T/C (second compound 0.1 µM, first compound 10 µM) of 64.8% and a viability, T/C [6] of 73.5%. The viability, T/C [7] was 71.6%, the viability, T/C (second compound 0.316 µM, first compound 0.316 µM) was 62.4% and the viability, T/C (second compound 0.316 µM, first compound 1 µM) was 63.2%. It also gave a viability, T/C (second compound 0.316 µM, first compound 3.16 µM) of 60.2%, a viability, T/C (second compound 0.316 µM, first compound 10 µM) of 56.4% and a viability, T/C [8] of 83.2%. It also gave a viability, T/C [9] of 71.9%, a viability, T/C (second compound 1 µM, first compound 0.316 µM) of 60.7% and a viability, T/C (second compound 1 µM, first compound 1 µM) of 71.2%. The viability, T/C (second compound 1 µM, first compound 3.16 µM) was 62.1%, the viability, T/C (second compound 1 µM, first compound 10 µM) was 64.7% and the viability, T/C (second compound 3.16 µM, first compound 0.0316 µM) was 84.6%. It also gave a viability, T/C (second compound 3.16 µM, first compound 0.1 µM) of 72.4%, a viability, T/C (second compound 3.16 µM, first compound 0.316 µM) of 62.4% and a viability, T/C (second compound 3.16 µM, first compound 1 µM) of 67.4%. It also gave a viability, T/C (second compound 3.16 µM, first compound 3.16 µM) of 65.4%, a viability, T/C (second compound 3.16 µM, first compound 10 µM) of 48.3% and a viability, T/C (second compound 10 µM, first compound 0.0316 µM) of 179%. For the same compound, the viability, T/C (second compound 10 µM, first compound 0.1 µM) was 164%, the viability, T/C (second compound 10 µM, first compound 0.316 µM) was 164% and the viability, T/C (second compound 10 µM, first compound 1 µM) was 136%. The viability, T/C (second compound 10 µM, first compound 3.16 µM) was 167% and the viability, T/C (second compound 10 µM, first compound 10 µM) was 151%.
`Cc1nc(N2CCC3(CC2)COC(C)C3N)c(CO)nc1Sc1ccnc(N)c1Cl` (configuration not stated) + CCN1C(C(=O)NC23CCC(C(=O)O)(CC2)CC3)C(c2cccc(Cl)c2F)C2(C(=O)Nc3cc(Cl)ccc32)C12CCCCC2 gave a pIC50 (curve of first compound, second compound 0.03 µM) of 6.62, a pIC50 (curve of first compound, second compound 0.0949 µM) of 7.32 and a pIC50 (curve of first compound, second compound 0.3 µM) greater than 8.02. The pIC50 (curve of first compound, second compound 0.949 µM) was greater than 8.02, the pIC50 (curve of first compound, second compound 3 µM) was greater than 8.02 and the viability, T/C (second compound 0.03 µM, first compound 0.00949 µM) was 79.9%. It also gave a viability, T/C (second compound 0.03 µM, first compound 0.03 µM) of 74.8%, a viability, T/C (second compound 0.03 µM, first compound 0.0949 µM) of 64.1% and a viability, T/C (second compound 0.03 µM, first compound 0.3 µM) of 44%. The viability, T/C (second compound 0.03 µM, first compound 0.949 µM) was 41%, the viability, T/C (second compound 0.03 µM, first compound 3 µM) was 30.3% and the viability, T/C (second compound 0.0949 µM, first compound 0.00949 µM) was 57%. For the same compound, the viability, T/C (second compound 0.0949 µM, first compound 0.03 µM) was 58%, the viability, T/C (second compound 0.0949 µM, first compound 0.0949 µM) was 41.3% and the viability, T/C (second compound 0.0949 µM, first compound 0.3 µM) was 27.8%. The viability, T/C (second compound 0.0949 µM, first compound 0.949 µM) was 22.2%, the viability, T/C (second compound 0.0949 µM, first compound 3 µM) was 15.7% and the viability, T/C (second compound 0.3 µM, first compound 0.00949 µM) was 30.7%. It also gave a viability, T/C (second compound 0.3 µM, first compound 0.03 µM) of 24.3%, a viability, T/C (second compound 0.3 µM, first compound 0.0949 µM) of 13.7% and a viability, T/C (second compound 0.3 µM, first compound 0.3 µM) of 12.3%. For the same compound, the viability, T/C (second compound 0.3 µM, first compound 0.949 µM) was 8.52%, the viability, T/C (second compound 0.3 µM, first compound 3 µM) was 6.36% and the viability, T/C (second compound 0.949 µM, first compound 0.00949 µM) was 6.38%. For the same compound, the viability, T/C (second compound 0.949 µM, first compound 0.03 µM) was 6.83%, the viability, T/C (second compound 0.949 µM, first compound 0.0949 µM) was 2.73% and the viability, T/C (second compound 0.949 µM, first compound 0.3 µM) was 11.8%. The viability, T/C (second compound 0.949 µM, first compound 0.949 µM) was 2.12%, the viability, T/C (second compound 0.949 µM, first compound 3 µM) was 2.01% and the viability, T/C (second compound 3 µM, first compound 0.00949 µM) was 2.07%. The viability, T/C (second compound 3 µM, first compound 0.03 µM) was 2.17%, the viability, T/C (second compound 3 µM, first compound 0.0949 µM) was 2.3% and the viability, T/C (second compound 3 µM, first compound 0.3 µM) was 2.57%. It also gave a viability, T/C (second compound 3 µM, first compound 0.949 µM) of 0.76% and a viability, T/C (second compound 3 µM, first compound 3 µM) of 0.83%.
For `O=C(c1ccc(F)c(F)c1Nc1ccc(I)cc1F)N1CC(O)([C@@H]2CCCCN2)C1`, the viability, T/C (compound 0.00316 µM) was 96.9% and 101% and 95.2%, the viability, T/C (compound 0.01 µM) was 96.2% and 95.5% and 92.5% and the viability, T/C (compound 0.0316 µM) was 88.3% and 78.5% and 90.8%. The viability, T/C (compound 0.1 µM) was 81% and 66.6% and 80.8%, the viability, T/C (compound 0.316 µM) was 60.5% and 59.8% and 60.2% and the viability, T/C (compound 1 µM) was 27.1% and 21.9% and 27.9%. The pIC50 (curve of compound) was 6.34 and 6.47.

Reference: PubChem BioAssay AID1963424 (Molecular Pharmacology Branch, DTP, NCI, 2024)
